Experimental data reported in patent US8637038B2, “Methods for inhibiting allograft rejection” (Rigel Pharmaceuticals, Inc., priority 2011, dated 2014).
“And” between values parts separate entries of the source, which are not always exact repeats. Identical values can stand only once.

Experiments:
[1] = system: BN-to-Lew heterotopic heart transplantations; test: Graft survival study after 10-day treatment, with combination index; assay type: in vivo, rat; conditions: no medication 7±0 days
Source text: Male Brown Norway (BN) and Lewis (Lew) rats weighing 350 g were purchased from Harlan (Indianapolis, Ind.) and were housed under conventional conditions. All animals were fed standard rat chow and water ad libitum and received humane care in compliance with the Principles of Laboratory Animal Care formulated by the National Society for Medical Research and the Guide for the care and Use of Laboratory Animals published by the National Institutes of Health (National Institutes of Health publication No. 85-23, revised 1985). Allogeneic (BN-to-Lew) and syngeneic (Lew-to-Lew) heterotopic heart transplantations were performed as described previously (Ono et al., J. Thorac. Cardiovasc. Surg. 57:225-229, 1969). In brief, rats were anaesthetized using 2% isoflurane. The donor received an intravenous bolus of 500 I.U. heparin. Cardiac arrest was achieved using 20 ml Bretschneider solution (Custodiol, Dr. F. Koehler Chemie, Bensheim, Germany). […] Heart-beating score was assessed directly after transplantation for each animal from score 0 (no palpable contraction) to 4 (strong and regular contraction). Only animals with beating scores of 4 were included into the study.
(§1) Compound I and Compound III were provided by Rigel (South San Francisco, Calif.) and Tacrolimus was provided by Astellas (Munich, Germany). All drugs were administrated orally each in two different concentrations: Compound I LD (15 mg/kg BID; n=6) and HD (60 mg/kg BID; n=6); Compound III LD (5 mg/kg BID; n=6) and HD (20 mg/kg BID; n=6); Tac LD (1 mg/kg QD; n=6) and HD (4 mg/kg QD; n=6). Administration of all drugs was performed every day at the same time points. Tacrolimus was applied only once a day (QD) every 24 hours. During administration of Compound I (BID) and Compound III (BID) a 12 hour pause was kept in between each drug application.
BN-to-Lew heterotopic heart transplantations were performed. Recipient animals were treated for 10 days according to Table 1 (10 day survival study group) and graft survival was monitored by daily palpation of the beating donor heart through the abdominal wall. Scoring was assessed according to heart-beating score of 0 to 4. The time of rejection was defined as the last day of palpable cardiac contractions and graft rejection was confirmed by laparotomy.
The median-effect principle of Chou (in Synergism and Antagonism in Chemotherapy, Chou and Rideout, eds, pp. 61-102, Academic Press, 1991) is based on the premise that the effect of each agent is related to its dose and, therefore, can be calculated using the following equation: (fa/fu)=(D/Dm)m, where fa and fu represent the fractions of the system that are affected (% inhibition or rather days of survival beyond controls) and unaffected (1−fa), respectively, by the drug at dose D. Full protection (fa=1) is defined as at least a 28-day survival of allografts. Dm is the dose required for 50% inhibition (ED50), the median effect (m) is a coefficient that describes the sigmoidicy of the dose-effect curve. The interaction between two drugs is assessed by the combination index (CI) equation for the doses to achieve x % inhibition:
[formula] for the mutually nonexclusive case, where each drug has a different mode of action. A computer software program was used to determine the dose-effect parameters (Dm, m, and r), and the CI values (CalcuSyn, Biosoft, Cambridge, United Kingdom).
Graft survival was monitored by daily palpation of the beating donor heart through the abdominal wall and treatment of animals was stopped after 10 days.

[2] = Five-day heart allograft study: side effects (clinical chemistry); assay type: in vivo, rat; conditions: five days
Experimental: as §1
Lew recipients of heterotopic BN heart transplants were randomly assigned to their group. Animals were either left untreated (groups 1 and 2; see Table 1,5-day study) or received their group specific medication (groups 3-8; see Table 1,5-day study) by oral application. An untreated syngeneic transplant group Lew-Lew was generated as control.
EDTA samples and sera were taken five days after transplantation for differential blood count, BUN, Creatinine, Cholesterol, HDL, LDL, Triglycerides, AST, and ALT, respectively. Analyses were performed by standard clinical chemistry procedures.

[3] = HD (Compound I 60 mg/kg BID, Compound III 20 mg/kg BID, Tac 4 mg/kg QD) for 10 days
[4] = LD (Compound I 15 mg/kg BID, Compound III 5 mg/kg BID, Tac 1 mg/kg QD) for 10 days

| Structure (SMILES) | graft survival, mean [1, 3] | graft survival, mean [1, 4] [days] | serum HDL, mean ([2]; HD (Compound I 60 mg/kg BID, Compound III 20 mg/kg BID, Tac 4 mg/kg QD), no medication mean 26.0) [mg/dL] | serum LDL, mean ([2]; LD (Compound III 5 mg/kg BID, Tac 1 mg/kg QD)) [mg/dL] |
| --- | --- | --- | --- | --- |
| COc1cc(Nc2ncc(C)c(Nc3ccc4oc(=O)[nH]c4c3)n2)cc(C)c1F [Compound I, 5-(2-(4-fluoro-3-methoxy-5-methylphenylamino)-5-methylpyrimidin-4-ylamino)benzo[d]oxazol-2(3H)-one] | 22 ± 5 days and 22 ± 6 days | 15 ± 3 |  |  |
| COc1cc(Nc2ncc(C)c(Nc3ccc4oc(=O)[nH]c4c3)n2)cc(C)c1C [Compound III, 5-(2-(3-methoxy-4,5-dimethylphenylamino)-5-methylpyrimidin-4-ylamino)benzol[d]oxazol-2-(3H)-one] | 20 ± 4 days and 20 ± 2 days | 13 ± 2 | 46.3 | 19.6 |
